Measured values from patent publication US10105384B2, “Nucleic acids targeting TCTP for use in the treatment of chemo- or hormone-resistant cancers” (INSTITUT NATIONAL DE LA SANTE ET DE LA RECHERCHE MEDICALE …, priority 2010, dated 2018).

Tests used:
PC-3 cells = assay: Flow cytometry of propidium iodide-stained nuclei (apoptosis, cell cycle), PC-3 cells; assay type: cell-based, human; details: PC-3, docetaxel treatment
Protocol: Flow cytometry of propidium iodide-stained nuclei was performed as described previously (Rocchi et al., 2004, Cancer Res. 64:6595-602). In brief, PC-3 cells were plated at the density of 10^6 cells into 10 cm dishes in DMEM supplemented with 10% FCS. To assess the effect of TCTP inhibition on apoptosis and cell cycle, cells were treated the day after seeding with 5 nM of siRNA TCTP or control and 100 nM of ASO TCTP or scrambled control for 48 h. Cells were then treated with 50 nM of docetaxel. After 24 h, the cells were analyzed for relative DNA content on a dual laser flow cytometer (FACSCalibur, Becton Dickinson Biosciences, Le Pont de Claix, France). Each assay was performed in triplicate.
Flow cytometry was used to quantify the percentage of cells in each cell cycle phase three days after the siRNA treatment. After the treatment of PC-3 cells with 5 nM TCTP siRNA for 1 day, the fraction of cells undergoing apoptosis (sub-G1/G0 fraction) was 25% higher after treatment with 5 nM TCTP siRNA compared with scrambled control siRNA (**, P≤0.01; FIG. 6, upper panel). Using TCTP ASO treatment alone, we found an increase of 75% in sub-G0G1 fraction (***, P≤0.001; FIG. 6, middle and bottom panel), enhanced by the 50 nM docetaxel treatment (90% in sub-G0-G1 fraction, ***, P≤0.001). […] The fraction of PC-3 in S phase was 20 to 40% lower after TCTP siRNA or ASO treatments respectively compared to the scrambled controls (FIG. 6). […] The rate of apoptotic PC-3 cells after TCTP silencing with different ASO concentrations was explored with the Invitrogen countess (FIG. 6 and FIG. 7A). PC-3 cells were treated with 70, 100 or 200 nM of TCTP ASO or control. Cells were harvested 3 days after treatment and […] of trypan blue was added before analysis with Invitrogen Countess. […] Moreover, TCTP has been reported to interact with caspase-3, thereby inhibiting caspase-3 activation (Gnanasekar et al., 2009, Int J Oncol. 34:1241-6). In order to investigate the effect of TCTP silencing on caspase-3 cleavage and activity, PC-3 cells were treated daily with 100 nM TCTP or scrambled ASO for 2 days. Cells were harvested 2 days after and proteins were extracted for western blotting with a caspase-3 antibody that recognizes both full-length and cleaved caspase-3.
PC3 cells were transfected with a TCTP siRNA of SEQ ID NO: 3. Cell proliferation and apoptosis were studied using respectively MTT (3-(4,5-dimethylthiazol-2-yl)-2,5-diphenyl tetrazolium bromure) assay and flow cytometry.
PC3 cells were transfected with a TCTP ASO of SEQ ID NO: 2. Cell proliferation and apoptosis were studied using respectively MTT assay and flow cytometry.

PC-3 tumors = assay: PC-3 tumor growth in vivo in athymic nude mice; details: PC3 xenografted nude mice, 10th week of treatment
Protocol: Approximately 3.10^6 PC-3 cells and 10.10^6 LNCaP cells were inoculated subcutaneously with 0.1 mL of Dulbecco's Modified Eagle's Medium (Invitrogen) supplemented with 10% FCS for PC-3 or with 0.1 mL of Matrigel (BD Biosciences Discovery Labware) for LNCaP in the flank region of 4-week-old male athymic nude mice (Charles River, L'Arbresle, France) via a 23-gauge needle. When PC-3 tumors reached 50 mm^3, usually 3 to 4 weeks after injection, mice were randomly selected for treatment with TCTP ASO alone, scrambled ASO alone, TCTP ASO plus docetaxel or scrambled ASO plus docetaxel. Mice bearing LNCaP tumors between 200 and 300 mm^3 in volume were castrated via scrotal approach and randomly assigned to a treatment arm. Mice were treated beginning 1 week after castration with TCTP ASO or control ASO alone and serum PSA measurements were done weekly. For both experiments, each experimental group consisted in 10 mice and the tumor volume measurements were performed once weekly and calculated by the formula length×width×depth×0.5236 (Gleave et al., 1999, Clin Cancer Res 5:2891-8). After randomization, 10 mg/kg TCTP or scrambled ASO was injected intraperitoneally (i.p) once daily for 60 days for ASO monotherapy groups and 90 days for the ASO plus docetaxel groups. A total of 35 mg/kg docetaxel was administrated i.p. three times per week from days 7 to 14. Tumor volume measurements were performed once weekly and calculated by the formula length×width×depth×0.5236 (20). Data points were expressed as average tumor volume levels +/−standard error (SE). All animal procedures were performed in accordance with protocols approved by French laws and the European directives and with appropriate institutional certification.
We next evaluated the effects of TCTP ASO treatment on the growth of PC-3 tumors in vivo (FIG. 8). Male nude mice bearing PC-3 tumors (50 mm^3) were randomly selected for TCTP ASO versus scrambled ASO and 10 mg/kg ASO were administrated once daily by i.p. injection for […]. From days 7 to 14, 30 mg/kg of docetaxel was administrated i.p. 3 days in the week. Mean tumor volume was similar in all groups before therapy.
TCTP inhibition was evaluated in nude mice xenografted with the PC3 CRPC cell line. The animals were treated in an everyday basis and for a period of two months by peritoneal injection of ASO or control TCTP once their tumor volume was 200-300 mm^3. In order to evaluate the additive anticancer activity of ASO TCTP, mice were treated with docetaxel (33 mg/kg) by peritoneal injection three times per week for one week prior to ASO or control TCTP injections. For all experiments, the average tumor volume was measured once a week.

TCTP = assay: ASO sequences screening: TCTP expression by western blot and/or qRT-PCR; assay type: cell-based, human; details: WB and/or qRT-PCR, PC-3 cells overexpressing TCTP
Protocol: Western Blot analysis was performed as described previously (Rocchi et al., 2004, Cancer Res. 64:6595-602) with 1:5000 rabbit anti-Hsp27 polyclonal antibody (Assay Designs, Villeurbanne, France), 1:2000 rabbit TCTP polyclonal antibody (Abcam Inc., Cambridge, UK), 1:250 rabbit anti-MSL1v1 polyclonal antibody (Abcam Inc.), 1:500 mouse anti-ubiquitin monoclonal antibody (Santa Cruz Biotechnology Inc., Heidelberg, Germany) or 1:1000 rabbit anti-caspase-3 polyclonal antibody (Cell Signalling Technology Inc., Danvers, USA). Loading levels were normalized using 1:5000 rabbit anti-glyceraldehyde-3-phosphate dehydrogenase polyclonal (Abcam Inc.) or 1:2500 mouse anti-vinculine monoclonal antibodies (Sigma Chemical Co., St Louis, Mo., USA).
The quantitative reverse transcription polymerase chain reaction (qRT-PCR) analysis was done on a LightCycler detection system (Roche Applied Science, Meylan, France). Expression levels of 18S subunit of the ribosome gene were used as an internal control. First strand cDNA was synthesized from 1 μg of total RNA using random hexamers and expanded by reverse transcriptase according to the manufacturer's instructions (ImProm-II Reverse Transcription System, Promega, Charbonniéres-les-Bains, France), subsequently diluted 1:10 with water, and stored at −20° C. until use. TCTP and 18S polymerase chain reaction (PCR) products were detected by quantitative real time PCR (qRT-PCR) using the SYBR Premix Ex Taq (Takara Bio Inc, St Germain en Laye, France) following the manufacturer's instructions. Five microliters of diluted cDNA template were mixed with 10 μl SYBR Premix Ex Taq (including Taq polymerase, reaction buffer, MgCl2, SYBR green I dye, and deoxynucleotide triphosphate mix) and 0.4 μM forward and reverse primers, in a final volume of 20 μl. The following primers were used: TCTP forward 5′-[…]-3′ (SEQ ID NO: 8) and TCTP reverse 5′-[…]-3′; (SEQ ID NO: 9); 18S forward 5′-[…]-3′ (SEQ ID NO: 10) and 18S reverse 5′-[…]-3′ (SEQ ID NO: 11). After an initial Taq activation for 10 seconds at 95° C., Light Cycler PCR was done using 55 cycles with the following cycling conditions: 95° C. for 5 seconds, 58° C. for 7 seconds, and 72° C. for 14 seconds. Each sample was analyzed in duplicate and the experiment was repeated three times. Results were analyzed using RealQuant data analysis software (Roche, Neuilly-sur-seine, France). The results analysis was done with the 2(-Delta Delta C(T)) Method (Livak K J. et al., 2001; Methods. 25:402-8).
In order to find a sequence ASO having an inhibiting effect on TCTP expression, 30 ASO sequences have been designed 26 of which are shown in table 1. Said 30 sequences cover the TCTP mRNA (accession number NM_003295). Using BLAST program, the specificity of said sequences has been studied. Among said 30 sequences, only 15 sequences have been identified as being specific for TCPT mRNA sequence (see table 1). The effect of said ASO sequences on TCTP expression was tested by western blot analysis (WB) and/or by quantitative reverse transcription polymerase chain reaction (qRT-PCR) on PC-3 cells overexpressing TCTP. WB and qRT-PCR were performed as exposed in example 1.

## CC(=O)O[C@@]12CO[C@@H]1C[C@H](O)[C@@]1(C)C(=O)[C@H](O)C3=C(C)[C@@H](OC(=O)[C@H](O)[C@@H](NC(=O)OC(C)(C)C)c4ccccc4)C[C@@](O)([C@@H](OC(=O)c4ccccc4)[C@H]21)C3(C)C [docetaxel, reference compound]
PC-3 cells
  fraction of cells in S phase: without changing the fraction of cells in S phase
  fraction of cells undergoing apoptosis: increased the fraction of cells undergoing apoptosis

## 5′-CGTGTAGGTACGGCAGATC-3′ (listed as DNA, chemistry not given here) [ASO scrambled, reference compound]
PC-3 tumors
  tumor volume: over 1500 mm^3

## ACCAGTGATTACTGTGCTTT (listed as DNA, chemistry not fully specified) [ASO13]
TCTP
  ability to inhibit TCTP expression: strong ability to inhibit TCTP expression

## TTCTGGTCTCTGTTCTTCAA (listed as DNA, chemistry not fully specified) [ASO19]
TCTP
  ability to inhibit TCTP expression: strong ability to inhibit TCTP expression

## TTAACATTTCTCCATTTCTA (listed as DNA, chemistry not fully specified) [ASO26]
TCTP
  ability to inhibit TCTP expression: strong ability to inhibit TCTP expression

## ATGTAATCTTTGATGTACTT (listed as DNA, chemistry not fully specified) [ASO17]
TCTP
  ability to inhibit TCTP expression: strong ability to inhibit TCTP expression

## GTCATAAAAGGTTTTACTCT (listed as DNA, chemistry not fully specified) [ASO28]
TCTP
  ability to inhibit TCTP expression: strong ability to inhibit TCTP expression

## GAAATTAGCAAGGATGTGCT (listed as DNA, chemistry not fully specified) [ASO30]
TCTP
  ability to inhibit TCTP expression: strong ability to inhibit TCTP expression

## AGAAAATCATATATGGGGTC (listed as DNA, chemistry not fully specified) [ASO24]
TCTP
  ability to inhibit TCTP expression: strong ability to inhibit TCTP expression

## GTTTCCCTTTGATTGATTTC (listed as DNA, chemistry not fully specified) [ASO18]
TCTP
  ability to inhibit TCTP expression: strong ability to inhibit TCTP expression

## TAATCATGATGGCGACTGAA (listed as DNA, chemistry not fully specified) [ASO4]
TCTP
  ability to inhibit TCTP expression: strong ability to inhibit TCTP expression

## CTTGTAGGCTTCTTTTGTGA (listed as DNA, chemistry not fully specified) [ASO16]
TCTP
  ability to inhibit TCTP expression: strong ability to inhibit TCTP expression
